Measurements reported in patent US20110306608A1, “COMPOSITIONS AND METHODS FOR TREATING VASCULAR, AUTOIMMUNE AND INFLAMMATORY DISEASES” (priority 2005, published 2011).

How the values were obtained:
[1] = Serum mycophenolic acid level by commercial assay in mice fed MMF in chow; assay type: in vivo, mouse
Source text: No MPA was detected in the serum of control mice (data not shown).

[2] = tested on: endothelial nitric oxide synthase (eNOS) expression; details: in vitro, cholesterol clamped conditions; cited from earlier work

| SMILES | average serum mycophenolic acid (MPA) level ([1]; high-dose group (MMF 100 mg/kg/day in high-fat chow)) [mg/L] | average serum mycophenolic acid (MPA) level ([1]; low-dose group (MMF 15 mg/kg/day in high-fat chow)) [mg/L] | upregulation of eNOS expression [2] |
| --- | --- | --- | --- |
| COc1c(C)c2c(c(O)c1C/C=C(\C)CCC(=O)O)C(=O)OC2 [MPA, mycophenolic acid] | 3.65 ± 0.3 | 1.16 ± 0.09 |  |
| CC[C@H](C)C(=O)O[C@H]1C[C@@H](C)C=C2C=C[C@H](C)[C@H](CC[C@@H]3C[C@@H](O)CC(=O)O3)[C@H]21 [lovastatin] |  |  | almost fourfold |
